The results in this text go back to PubChem BioAssay AID977607 (Broad Institute, 2014).

Each structure is given as a SMILES string. Several values for one entry are separate records, joined by “and”; a condition that tells them apart may be missing. Identical values can stand only once. Activity calls are given as the source filed them.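 How the source made its calls: active means curve reaches 40% activation over neutral controls at an AC40 no higher than the top valid tested concentration; inconclusive means no clear call, values can overlap the other calls; inactive means signal moving opposite to the expected increase, and the rest.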 Bounds are passed on as bounds.

This assay relates to INS-1E GLuc insulin secretion reporter, luminescence, 2-3 h. The experiment in a line: GLuc-reported insulin release enhancers, glucose-stimulated beta cells – cell-based, INS-1E, Gaussia luciferase, luminescence, cherry-pick, set 2, dose response (AID 977607).
`O=c1[nH]c(/C=C/c2ccc(OC(F)F)cc2)nc2c1cnn2-c1ccccc1`: the AC40 was 21.6 µM.
The result for `FC(F)(F)c1cc(CCN2CCNC[C@@H]2c2ccccc2)cc(C(F)(F)F)c1` reads 6.96 µM; that for `COc1ccc(C(=O)Cc2ccc3c(c2)OCO3)c(O)c1`, > 35 µM (inactive); that for `Cc1ccc(-c2cc(C(=O)NCc3cnn(C)c3)c3cc(Br)ccc3n2)cc1`, 3.7 µM.
On to `CC1CCN(S(=O)(=O)c2ccc(C(=O)OCc3ccc4c(c3)OCO4)cc2)CC1`, for which the AC40 is 13.4 µM.
The result for `O=C(Nc1ccccc1)c1nnsc1S(=O)(=O)c1ccc(Cl)cc1` reads 1.21 µM; that for `OC(c1ccccc1)(c1nc(-c2cccc(C(F)(F)F)c2)cs1)C(F)(F)F` (configuration not stated), 10.3 µM.
As to `Cc1c(O)cnc2nn(-c3ccccc3)c(=N)n12`, the AC40 was > 35 µM (inactive).
As for `O=c1c(C=Nc2ccc(Oc3ccccc3)cc2)c[nH]n1-c1cccc(Cl)n1`, the AC40 was 6.27 µM.
Regarding `CC(C)CC#Cc1ccc2c(c1)O[C@H](CN(C)C(=O)C1CCCCC1)[C@@H](C)CN([C@@H](C)CO)S2(=O)=O`, the AC40 was 10.2 µM.
As for `COc1ccc(/C=N/NC(=O)c2ccc(COc3ccccc3Cl)o2)c(OC)c1C`, the figure is 5.44 µM; as for `CCOc1ccc(CN2C(=O)c3ccccc3C2=O)cc1C(=O)Nc1nnc(SCC)s1`, 13.6 µM; as for `CC(C)CC(NC(=O)c1ccc(Cl)cc1)C(=O)OCC(=O)c1ccc2c(c1)NC(=O)CO2` (configuration not stated), 2.36 µM.
With `CCCCCc1c(Cc2ccccc2)ncn1CCc1ccccc1OC`, the AC40 is 12.3 µM.
The result for `Cc1nc(NC(=O)c2cccc(-c3cc4ccccc4oc3=O)c2)ccc1Br` reads 12.7 µM.
As for `CCOC(=O)c1c(C)n(-c2ccc(C)cc2)c2ccc(OCC(O)CN3CCN(C)CC3)cc12` (configuration not stated), the figure is 12.3 µM.
In the case of `CC(C)C[C@H](NC(=O)c1[nH]cnc1C(=O)N[C@@H](C)c1ccccc1)C(=O)OC(C)(C)C`, the AC40 was 31.3 µM.
As for `O=C(CCN1CCOCC1)c1ccccc1`, the figure is 7.71 µM; as for `COc1cc(CN2[C@@H]3CNC[C@H]2C3c2ccc(/C=C/c3ccccc3)cc2)cc(OC)c1` (some centres not stated), 10.3 µM; as for `COCCn1c(=NC(=O)c2cc(Cl)sc2Cl)sc2cc(S(N)(=O)=O)ccc21`, 7.51 µM.
In the case of `Cc1cccc(C(C)C)c1NC(=O)COC(=O)c1cccc(S(=O)(=O)N2CCc3ccccc3C2)c1`, the AC40 is 10.9 µM.
The result for `C=CCNC(=S)N/N=C/c1ccc(-c2cc(Cl)ccc2Cl)o1` reads 5.15 µM.
The result for `OC(c1ccccc1)(c1ccccc1)C1CCN(CCCOc2ccc3c(c2)CCCC3)CC1` reads 6.92 µM; that for `CCOC(=O)c1ccccc1NC(=O)c1n[nH]c(=O)c2ccccc12`, 5.47 µM.
As for `COc1ccc(NC(=O)COc2ccc(C(=O)NC3CCCc4ccccc43)cc2OC)cc1` (configuration not stated), the AC40 is 6.54 µM.
As to `CC(=O)C1=C(S(=O)(=O)c2ccc(C)cc2)CS(=O)(=O)C1`, the AC40 is 1.23 µM.
As for `O=C(NC(=S)Nc1ccc(NC(=O)c2cccs2)cc1)c1cc2ccccc2o1`, the figure is 14.3 µM.
The result for `Cc1cc(C)cc(NC(=O)Cc2ccc(-n3cccc3)cc2)c1` reads 8.29 µM.
As to `CCOc1ccccc1Nc1cc2n(c(=O)n1)CCc1cc(OC)c(OC)cc1-2`, the AC40 is 1.07 µM.
In the case of `CCn1cc(S(=O)(=O)NCCc2ccc(OC)c(OC)c2)cn1`, the AC40 is 3.87 µM.
As for `COC(=O)C1=C(C)N(Cc2cccc(C(F)(F)F)c2)C(=NCc2ccc(C(F)(F)F)cc2)NC1c1ccccc1` (configuration not stated), the figure is 9.69 µM.
As for `Cc1cccc(-c2ccc(C3[C@@H]4CN(Cc5cccc(F)c5)C[C@H]3N4)cc2)c1` (some centres not stated), the figure is 12.3 µM and 2.97 µM.
`N/C(=N\OC(=O)COc1ccc(Cl)cc1Cl)c1cccnc1`: the AC40 is 29.8 µM.
The result for `COC(=O)C1=C(C)N(Cc2cccc(C(F)(F)F)c2)C(=NCc2ccc3c(c2)OCO3)NC1CCc1ccccc1` (configuration not stated) reads 13.1 µM; that for `COC(=O)C1=C(C)N(C)C(=NCc2cccc(C(F)(F)F)c2)NC1c1ccc(C(F)(F)F)cc1` (configuration not stated), 18.1 µM.
Consider `Cc1ccc(C)c(OCC(=O)N/N=C/c2c(C)nn(-c3ccccc3)c2Cl)c1C`, for which the AC40 is 3.2 µM.
The result for `O=C(Nc1ccc(C(F)(F)F)cc1)N1C[C@@H]2N[C@H](C1)C2c1ccc(-c2ccccc2)cc1` (some centres not stated) reads 10.2 µM; that for `CCN(CC)c1ccc(N=Cc2c(O)n(Cc3ccccc3)c(=O)[nH]c2=O)cc1`, 11.3 µM; that for `Cc1c(CC(=O)O)c(=O)oc2c(C)c(OCc3ccccc3Br)ccc12`, > 35 µM (inactive).
The result for `Oc1ccccc1C1SC(c2ccccc2O)SC(c2ccccc2O)S1` (configuration not stated) reads 6.08 µM.
As for `CC(=O)Nc1c(C(=O)C2CC2)oc2ccccc12`, the figure is 6.8 µM; as for `CCOc1ccc(-n2nnnc2-c2nc3ccccc3s2)cc1`, 6.78 µM.
Take `Cc1[nH]c2ccc(OC(F)(F)F)cc2c1CCNCc1ccc(Cl)cc1`: the AC40 is 6.14 µM.
The result for `O=C(NCC1OCCc2ccccc21)c1ccc(NC(=O)c2ccc(Cl)cc2)cc1` (configuration not stated) reads 5.18 µM; that for `CCCc1nnc2n1N=C(c1ccc(OC)c(OC)c1)CS2`, 2.98 µM; that for `C/C=C/c1ccc(C2[C@@H]3CN(C(=O)Nc4ccc(C(F)(F)F)cc4)C[C@H]2N3)cc1` (some centres not stated), 12.5 µM.
Consider `O=C(O)c1ccc(/C=N/n2c(C3CCCCC3)n[nH]c2=S)cc1`, for which the AC40 was 5.87 µM.
The result for `CC(C)Nc1nc(Nc2ccc(C(N)=O)cc2)c2sccc2n1` reads 9.89 µM; that for `CCOc1ncccc1C(=O)Nc1ccccc1F`, > 35 µM (inactive); that for `C=C(C)C1Cc2c(C)nn(-c3cccc4cccnc34)c2C1` (configuration not stated), 2.1 µM.
The result for `COc1cc2c(cc1OC)C1=C(C#N)CCC(=NC(=O)c3ccco3)N1CC2` reads 7.7 µM; that for `CCOc1ncccc1C(=O)Nc1ccc(S(=O)(=O)Nc2nccs2)cc1`, 3.21 µM; that for `CCOc1ccc(/C=N/NC(=O)c2cc(-c3ccco3)nc3ccccc23)cc1`, 8.25 µM.
The result for `Clc1ccc(/C=N/NC2=Nc3cccc4cccc2c34)cc1` reads 2.13 µM; that for `CCn1c(SCc2cc(=O)[nH]c3ccccc23)nc2c1c(=O)n(C)c(=O)n2C`, 1.42 µM.
In the case of `O=C(CCn1ccc2cc(S(=O)(=O)N3CCCC3)ccc21)NCc1cccc(F)c1`, the AC40 was 9.56 µM.
The result for `CCC1OC(C2CC2)CC2=C1C(=O)OC(C)(C)O2` (configuration not stated) reads 4.79 µM; that for `CC(NCC(O)COCCC12CC3CC(CC(C3)C1)C2)c1ccccc1` (configuration not stated), 14.9 µM.
As for `COC(=O)c1ccc2c(c1)NC(=O)C(N(CC(C)C)CC(C)C)S2` (configuration not stated), the figure is 5.29 µM; as for `Fc1cccc(CN2C[C@@H]3N[C@H](C2)[C@@H]3c2ccc(-c3cccc(F)c3)cc2)c1`, 3.93 µM.
Turning to `Cc1ccc2oc(-c3ccc(NC(=O)c4ccc5c(c4)OCO5)cc3)nc2c1`, the AC40 is 4.81 µM.
As for `CCOCCCNC(=O)c1oc2ccc3c(c2c1C)C(O)CC(C)(C)O3` (configuration not stated), the figure is 5.92 µM; as for `C=CCNc1nc(NCc2ccco2)nc(OCC)n1`, > 35 µM (inactive).
Turning to `O=C(Nc1ccc(SC(F)F)cc1)c1cccc2nc3ccccc3nc12`, the AC40 was 9.11 µM.
Regarding `Cc1cc(Cl)ccc1Oc1nc(-c2ccccc2)ncc1S(C)(=O)=O`, the AC40 is 4.28 µM.
As to `CNC[C@@H](Cc1ccccc1)NC[C@@H](CC1CCCCC1)NCCCc1ccccc1`, the AC40 was > 35 µM (inactive).
The result for `COc1ccc(CCNC(=O)NS(=O)(=O)c2ccc(C)cc2)cc1OC` reads > 35 µM (inactive); that for `COC(=O)C1=C(C)N(Cc2ccc(C(F)(F)F)cc2)C(=NCc2ccccc2)NC1c1ccc(Cl)cc1` (configuration not stated), 8.24 µM; that for `CCC(C)c1ccccc1OCCCN(C)Cc1ccccc1` (configuration not stated), 7.97 µM.
The result for `COc1ccc(C(=O)N=C2CCC(C#N)=C3c4cc(OC)c(OC)cc4CCN23)cc1` reads 0.483 µM.
As for `CCc1c(C)sc(NC(=O)c2cc(-c3ccc(OC)c(OC)c3)on2)c1C#N`, the AC40 was 9.5 µM.
For the compound `O=C(N/N=C/c1ccc(O)cc1O)NC12CC3CC(CC(C3)C1)C2`, the AC40 was 18.1 µM.
For `Cc1ccc2c(Cl)c(C)c(N3CCCCC3)nc2n1`, the AC40 was 11.5 µM.
Turning to `CC1(C(=O)NS(=O)(=O)c2ccc(C#N)cc2)CCN1C(=O)C1(c2ccccc2)CCCC1` (configuration not stated), the AC40 was > 35 µM (inactive).
The result for `O=C(Nc1cccc(Cl)c1)Nc1nnc(CSCCOc2ccc(Cl)cc2)s1` reads 5.57 µM.
For `CC(C)CC#Cc1ccc2c(c1)O[C@@H](CN(C)Cc1ccc(F)cc1)[C@H](C)CN([C@H](C)CO)S2(=O)=O`, the AC40 is 10.4 µM.
As for `CCCCc1c(Cc2ccccc2)ncn1CCc1ccccc1OC`, the figure is 14.3 µM.
As for `Cn1c(=O)oc2cc(S(=O)(=O)N3CCC(C(=O)Nc4ccc(OC(F)(F)F)cc4)CC3)ccc21`, the figure is 7.48 µM; as for `O=C(NCC1OCCc2ccccc21)c1ccc(NC(=O)c2ccc(Cl)cc2Cl)cc1` (configuration not stated), 20.4 µM; as for `COc1ccc(C(=O)Nc2ccc3c(c2)C(=O)c2ccccc2C3=O)cc1OC`, 24.1 µM.
The result for `CCn1c(O)c(/C=N/N=C/c2ccc(OC)cc2)c2cc(C3=NNC(=O)CC3)ccc21` reads 4.21 µM.
Take `CCCCCCCOC(=O)c1nc(Cl)c(Cl)c(N)c1Cl`: the AC40 is 14.5 µM.
Turning to `Cc1cccc(-c2ccc(C3[C@@H]4CN(C(=O)C5CCCCC5)C[C@H]3N4)cc2)c1` (some centres not stated), the AC40 is 18.5 µM.
Take `Cc1ccc(S(=O)(=O)C=CS(=O)(=O)c2ccc(C)cc2)cc1`: the AC40 is 0.224 µM.
As for `CCOC(=O)C1(C)CCCCN1C(=O)c1cccc(Cl)c1` (configuration not stated), the figure is > 35 µM (inactive); as for `CCOc1cc(/C=N/NC(=O)CCn2nc(C)cc2C)ccc1O`, 8.04 µM.
For the compound `N#Cc1c(N)n(C2CCCCC2)c2nc3ccccc3nc12`, the AC40 was 18.9 µM.
For the compound `COc1cc2cnc(-c3ccsc3)cc2cc1OC`, the AC40 was 0.826 µM.
With `C=C[C@@]1(C)CC(=O)[C@]2(O)[C@@]3(C)[C@@H](O)CCC(C)(C)[C@@H]3[C@H](O)[C@H](OC(C)=O)[C@@]2(C)O1`, the AC40 is 0.0336 µM.
As for `COc1ccc2c(c1)CCc1c(C(=O)Nc3cc(C)n(Cc4ccc(Cl)cc4)n3)noc1-2`, the figure is 6.07 µM.
As for `CCCCc1ccc(NC(=O)COc2ccc(C(=O)Nc3ccccc3OCC)cc2)cc1`, the figure is 2.88 µM.
As to `CCOc1ccc(CCNC(=O)Cn2ccc3ccccc3c2=O)cc1OCC`, the AC40 was > 35 µM (inactive).
